Measured values published in patent US20230331655A1, “HYDROXYN[…] AND METHODS OF USE THEREOF” (UNIVERSITY OF MARYLAND, BALTIMORE, priority 2020, published 2023).

System: Male CD-1 mice
Assay: mouse forced swim test, immobility time 24 h after treatment
Type: in vivo
Conditions: for Holm-Šídák post-hoc comparison, group compared vehicle (p, immobility time) / minimum effective dose to reduce immobility time in the forced swim test / doses at which immobility time in the forced swim test was reduced (effective doses): 24 h after treatment; for minimum effective dose to reduce immobility time in the forced swim test / shape of dose response in the forced swim test / doses at which immobility time in the forced swim test was reduced (effective doses): male mice, i.p.; for shape of dose response in the forced swim test: tested range up to 100 mg/kg; for doses at which immobility time in the forced swim test was reduced (effective doses): relative to vehicle
Experimental: Animals: Male CD-1 mice (Charles Rivers Laboratories; Raleigh, NC, USA), 8-11 weeks old at the time of testing, were habituated to the University of Maryland (Baltimore, MD, USA) animal facility for at least one week prior to testing. Mice were group housed in cages of 4-5 per cage with a constant 12-hour light cycle (lights on/off at 07:00/19:00). Food and water were available ad libitum. All experiments were performed during the light phase. All studies were approved by the University of Maryland School of Medicine Animal Care and Use Committee and conducted in accordance with the National Institutes of Health Guide for the Care and Use of Laboratory Animals.
Drugs: (2R,6R)-HNK hydrochloride, (2S,6S)-HNK hydrochloride, (2R,6S)-HNK, and (2S,6R)-HNK were synthesized and characterized (molecular structures were confirmed via ^1H and ^13C NMR, the absolute and relative stereochemistry was assigned by x-ray crystallography, and the purity was determined via LC/MS) at the National Center for Advancing Translation Sciences (National Institutes of Health, Rockville, MD, USA). The synthesis and characterization of (2R,6R)-HNK hydrochloride, (2S,6S)-HNK hydrochloride, (2R,6S)-HNK, and (2S,6R)-HNK were performed as previously described in Morris et al., 2017, Org. Lett. 19:4572-4575, which is incorporated by reference herein in its entirety. (5R)-methyl-(2R,6R)-HNK was obtained from Organix Inc. (Woburn, MA, USA). (5R)-methyl-(2R,6R)-HNK can be synthesized according to the method described in Example 1. All compounds were dissolved in 20% (w/v) cyclodextrin (Sigma Aldrich, USA) in saline and administered intraperitoneally (i.p.) in a volume of 7.5 ml/kg.
Forced swim test: Compounds were tested in separate cohorts of male mice (n=10-18/group; only male mice were tested to control for sex-dependent differences in pharmacokinetics and brain levels) and all injections were performed by a experimenter. (2R,6R)-HNK, (2S,6S)-HNK, (2R,6S)-HNK, (2S,6R)-HNK were administered at the doses of 1, 3, 10, 30, and 100 mg/kg. (5R)-methyl-(2R,6R)-HNK was administered at the doses of 0.3, 1, 3, and 10 mg/kg. (2R,6S)-HNK and (2S,6R)-HNK were dosed as a free base whereas (2R,6R)-HNK and (2S,6S)-HNK, and (5R)-methyl-(2R,6R)-HNK were dosed as a hydrochloride salt. Vehicle and (2R,6R)-HNK (30 mg/kg) were included as controls in each cohort. Twenty-four h after treatment, mice were tested in the forced swim test, according to previously described methods. Injections were performed by a experimenter. Briefly, mice were placed into a clear Plexiglass cylinder (20 cm height×15 cm diameter) filled to a depth of 15 cm with water (23±1° C.) and subjected to a 6-min swim session. Swim sessions were recorded using a digital video camera. The time spent immobile (defined as passive floating with no movements other than those necessary to keep the head above water) was scored during the final 4 min of the session. Sessions were scored by a trained experimenter blind to the treatment groups.
Statistical analysis: All experiments and analyses were performed in a blinded and randomized manner. All injections were performed by a experimenter. Statistical analyses were performed using GraphPad Prism software (v8; GraphPad Software, Inc.). All statistical tests were two-tailed, and significance was assigned at p<0.05. Differences in immobility time were analyzed via one-way ANOVA followed by Holm-Šídák post-hoc comparison (with all groups compared to saline control group) when significance was reached. Significant results are indicated with asterisks in the figures (*p<0.05, **p<0.01, ***p<0.001). Data are presented as the mean±standard error of the mean (SEM).

SMILES	Holm-Šídák post-hoc comparison, group compared vehicle (p, immobility time) (1 mg/kg i.p.)	Holm-Šídák post-hoc comparison, group compared vehicle (p, immobility time) (3 mg/kg i.p.)	Holm-Šídák post-hoc comparison, group compared vehicle (p, immobility time) (10 mg/kg i.p.)	Holm-Šídák post-hoc comparison, group compared vehicle (p, immobility time) (100 mg/kg i.p.)	minimum effective dose to reduce immobility time in the forced swim test [mg/kg]	shape of dose response in the forced swim test	Holm-Šídák post-hoc comparison, group compared vehicle (p, immobility time) (30 mg/kg i.p.)	fold lower doses than (2R,6R)-HNK for antidepressant-relevant behavioral effects (forced swim test) [fold]	doses at which immobility time in the forced swim test was reduced (effective doses) [mg/kg]	Holm-Šídák post-hoc comparison, group compared vehicle (p, immobility time) (0.3 mg/kg i.p.)	Holm-Šídák post-hoc comparison, group compared vehicle (p, immobility time) (3 mg/kg i.p., hydrochloride)	Holm-Šídák post-hoc comparison, group compared vehicle (p, immobility time) (3 mg/kg i.p., listed as (5R)-Me-(2R,6R)-HNK, hydrochloride)
N[C@@]1(c2ccccc2Cl)CCC[C@@H](O)C1=O [(2R,6R)-HNK, (2R,6R)-hydroxynorketamine]	p = 0.2332	p = 0.2631	p = 0.0428	p = 0.0135	10	did not demonstrate U-shaped dose responses	–	–	–	–	–	–
N[C@@]1(c2ccccc2Cl)CCC[C@H](O)C1=O [(2R,6S)-HNK]	p = 0.0457	p = 0.0261	p = 0.0261	p = 0.4950	1	U-shaped dose response curves	p = 0.4950	10	1	–	–	–
N[C@]1(c2ccccc2Cl)CCC[C@@H](O)C1=O [(2S,6R)-HNK]	p = 0.8466	p = 0.0404	p = 0.0404	p = 0.8466	3	U-shaped dose response curves	p = 0.8466	–	–	–	–	–
N[C@]1(c2ccccc2Cl)CCC[C@H](O)C1=O [(2S,6S)-HNK, (2S,6S)-hydroxynorketamine]	p = 0.9176	p = 0.8804	p = 0.9176	p = 0.0003	30	did not demonstrate U-shaped dose responses	p = 0.0013	–	–	–	–	–
C[C@@H]1CC[C@@](N)(c2ccccc2Cl)C(=O)[C@@H]1O.Cl [(5R)-methyl-(2R,6R)-HNK, (2R,5R,6R)-2-amino-2-(2-chlorophenyl)-6-hydroxy-5-methylcyclohexan-1-one hydrochloride]	p = 0.0257	–	p = 0.0026	–	1	–	–	–	1 to 10	p = 0.8074	0.06	p = 0.0671
